This note sets out measurements from US20110224079A1, “SPIROHETEROCYCLIC N-OXYAMIDES AS PESTICIDES” (SYNGENTA CROP PROTECTION LLC, priority 2008, published 2011).

Structures are written as SMILES.

Test [1] concerns Myzus persicae (green peach aphid). In words: Example B2: activity against Myzus persicae, pea seedling roots in test solution (systemic/feeding, curative). The note with it: 144 h, read-out: activity (mortality).
The test system of test [2] is Tetranychus urticae (two-spotted spider mite). The test can be described thus: Example B4: activity against Tetranychus urticae, sprayed bean leaf discs (feeding/residual contact, preventive). As to conditions: foliar, 192 h, read-out: activity (egg, larval and adult mortality).
For test [3], the system named is Myzus persicae (green peach aphid). The test can be described thus: Example B1: activity against Myzus persicae, sprayed sunflower leaf discs (feeding/residual contact, preventive). As to conditions: foliar, 144 h, read-out: activity (mortality).
The test system is the same in test [4]. In words: Example B17: activity against Myzus persicae on sprayed pepper plants (feeding/residual contact). The test is classed as in vivo. As to conditions: 144 h, infested pepper plants sprayed, 6 days.

In general, mortality refers to the percentage killed. For `CCOC(=O)OC1=C(c2c(C)cc(C)cc2C)C(=O)N(OC(=O)C2CC2)C12CCN(OC)CC2` [P1.16], the mortality at 400 ppm in test [1] and in test [2] was over 80% each time.
For the compound `CCOC(=O)OC1=C(c2cc(Br)ccc2C)C(=O)N(OCOC)C12CCN(OC)CC2` [P1.21], the mortality at 400 ppm in test [2] was over 80%.
`CCOC(=O)OC1=C(c2cc(-c3ccc(Cl)cc3)ccc2C)C(=O)N(OCOC)C12CCN(OC)CC2` [P1.22]: the mortality at 400 ppm in test [3] and in test [2] was over 80% each time.
For the compound `C#CCON1C(=O)C(c2c(C)cc(C)cc2C)=C(OC(=O)OCC)C12CCN(OC)CC2` [P1.29], the mortality at 400 ppm in test [1], in test [3] and in test [2] was over 80% throughout.
With `CCOC(=O)OC1=C(c2cc(C)c(Cl)cc2C)C(=O)N(OCOC)C12CCN(OC)CC2` [P1.32], in test [4], the mortality at 200 ppm is at least 80%.
The compound `CCOC(=O)OC1=C(c2c(C)ccc(Cl)c2C)C(=O)N(OC)C12CCN(OC)CC2` [P1.37] came in with a mortality at 200 ppm in test [4] of at least 80%. In test [3], the mortality at 400 ppm was over 80%.
Turning to `CCOC(=O)OC1=C(c2cc(C)c(C)cc2Cl)C(=O)N(OCOC)C12CCN(OC)CC2` [P1.38], the mortality at 200 ppm in test [4] was at least 80%. For the same compound, the mortality at 400 ppm in test [3] was over 80%.
For `CCOC(=O)OC1=C(c2c(Cl)ccc(C)c2F)C(=O)N(OC2CCCO2)C12CCN(OC)CC2` (centres unmarked) [P1.43], the mortality at 400 ppm in test [1] and in test [2] was over 80% each time.
For the compound `CCOC(=O)OC1=C(c2cc(C)c(C)cc2C)C(=O)N(OC2CCCO2)C12CCN(OC)CC2` (centres unmarked) [P1.54], the mortality at 400 ppm in test [3] and in test [2] was over 80% each time.
`CCOC(=O)OC1=C(c2cc(C)c(C)cc2C)C(=O)N(OC)C12CCN(OC)CC2` [P1.57] registered a mortality at 200 ppm in test [4] of at least 80%. Moreover, the mortality at 400 ppm in test [1] and in test [3] was over 80% throughout.
For `CCOC(=O)OC1=C(c2c(C)cc(Br)cc2C)C(=O)N(OC2CCCO2)C12CCN(OC)CC2` (centres unmarked) [P1.63], the mortality at 200 ppm in test [4] is at least 80%. Also, the mortality at 400 ppm in test [1] and in test [3] was over 80% each time.
For the compound `CCOC(=O)OC1=C(c2c(C)ccc(Cl)c2C)C(=O)N(OCCOC)C12CCN(OC)CC2` [P1.65], the mortality at 200 ppm in test [4] is at least 80%. Besides, the mortality at 400 ppm in test [1] is over 80%.
With `CCOC(=O)OC1=C(c2c(C)cccc2C)C(=O)N(OCCOC)C12CCN(OC)CC2` [P1.73], the mortality at 200 ppm in test [4] is at least 80%. The mortality at 400 ppm in test [1] and in test [3] was over 80% each time.
Consider `CCOC(=O)OC1=C(c2c(C)cc(C)cc2C)C(=O)N(OC2COC2)C12CCN(OC)CC2` [P1.79], for which the mortality at 200 ppm in test [4] was at least 80%. In addition, the mortality at 400 ppm in test [1] was over 80%.
With `CCOC(=O)OC1=C(c2c(C)cc(C)cc2C)C(=O)N(OCC2CCSCC2)C12CCN(OC)CC2` [P1.80], the mortality at 400 ppm in test [2] is over 80%.
Take `CCOC(=O)OC1=C(c2c(C)cc(C)cc2C)C(=O)N(OCC2(CC)COC2)C12CCN(OC)CC2` [P1.84]: the mortality at 400 ppm in test [1] and in test [2] was over 80% each time.
Turning to `CCOC(=O)OC1=C(c2cc(Br)c(C)cc2C)C(=O)N(OCOC)C12CCN(OC)CC2` [P1.87], the mortality at 400 ppm in test [2] was over 80%.
The compound `CCOC(=O)OC1=C(c2c(C)cc(Br)cc2C)C(=O)N(OCCOC)C12CCN(OC)CC2` [P1.89] had a mortality at 200 ppm in test [4] of at least 80%. Besides, the mortality at 400 ppm in test [1] and in test [3] was over 80% throughout.
On to `CCOC(=O)OC1=C(c2c(C)cc(C)cc2C)C(=O)N(OC2CCN(OC)CC2)C12CCN(OC)CC2` [P1.104], for which the mortality at 400 ppm in test [1] and in test [2] was over 80% throughout.
With `CCOC(=O)OC1=C(c2c(C)cc(C)cc2C)C(=O)N(OCC2CCCCC2)C12CCN(OC)CC2` [P1.105], in test [2], the mortality at 400 ppm was over 80%.
`CCOC(=O)OC1=C(c2c(C)cc(C)cc2C)C(=O)N(OC2CCOC2)C12CCN(OC)CC2` (centres unmarked) [P1.108]: the mortality at 400 ppm in test [1] and in test [3] was over 80% in each case.
For `CCOC(=O)OC1=C(c2c(C)cc(C)cc2C)C(=O)N(OCC2CCCOC2)C12CCN(OC)CC2` (centres unmarked) [P1.109], the mortality at 400 ppm in test [1], in test [3] and in test [2] was over 80% each time.
On to `CON1CCC2(CC1)C(O)=C(c1cc(C)c(Cl)cc1C)C(=O)N2OC` [P2,31], for which the mortality at 200 ppm in test [4] is at least 80%.
For `COCON1C(=O)C(c2cc(-c3ccc(Cl)cc3)ccc2C)=C(O)C12CCN(OC)CC2` [P2.17], the mortality at 400 ppm in test [3] and in test [2] was over 80% throughout.
With `CON1CCC2(CC1)C(O)=C(c1c(C)cc(C)cc1C)C(=O)N2OC1CCCCC1` [P2.26, 1-Cyclohexyloxy-4-hydroxy-8-methoxy-3-(2,4,6-trimethyl-phenyl)-1,8-diaza-spiro[4.5]dec-3-en-2-one], the mortality at 400 ppm in test [2] was over 80%.
Regarding `COCCCON1C(=O)C(c2c(C)cc(C)cc2C)=C(O)C12CCN(OC)CC2` [P2.28], the mortality at 400 ppm in test [1] and in test [3] was over 80% throughout.
`COCCON1C(=O)C(c2cc(C)c(Cl)cc2C)=C(O)C12CCN(OC)CC2` [P2.29] had a mortality at 200 ppm in test [4] of at least 80%.
`CON1CCC2(CC1)C(O)=C(c1cc(C)c(Cl)cc1C)C(=O)N2OC` [P2.31]: the mortality at 400 ppm in test [3] and in test [2] was over 80% throughout.
`CON1CCC2(CC1)C(O)=C(c1ccc(C)cc1C)C(=O)N2OC1CCCO1` (centres unmarked) [P2.33]: the mortality at 200 ppm in test [4] was at least 80%. The mortality at 400 ppm in test [1] and in test [3] was over 80% in each case.
For `COCCON1C(=O)C(c2c(C)cc(C)cc2Cl)=C(O)C12CCN(OC)CC2` [P2.35], the mortality at 400 ppm in test [1], in test [3] and in test [2] was over 80% throughout.
With `CON1CCC2(CC1)C(O)=C(c1cc(C)c(C)cc1C)C(=O)N2OC` [P2.36], the mortality at 200 ppm in test [4] is at least 80%. Further, the mortality at 400 ppm in test [3] is over 80%.
The corresponding values for `COCON1C(=O)C(c2cc(C)c(C)cc2C)=C(O)C12CCN(OC)CC2` [P2.38] are at least 80% and over 80%.
As for `CON1CCC2(CC1)C(O)=C(c1c(C)ccc(Cl)c1C)C(=O)N2OC` [P2.40], the mortality at 200 ppm in test [4] is at least 80%. For the same compound, the mortality at 400 ppm in test [1] and in test [3] was over 80% throughout.
Consider `COCON1C(=O)C(c2cc(C)c(C)cc2Br)=C(O)C12CCN(OC)CC2` [P2.41], for which the mortality at 400 ppm in test [1] and in test [3] was over 80% in each case.
Compound `CON1CCC2(CC1)C(O)=C(c1cc(C)c(C)cc1Cl)C(=O)N2OC` [P2.43] yielded a mortality at 200 ppm in test [4] of at least 80%.
As for `CON1CCC2(CC1)C(O)=C(c1c(Cl)ccc(C)c1F)C(=O)N2OC1CCCO1` (centres unmarked) [P2.45], the mortality at 400 ppm in test [2] was over 80%.
On to `CON1CCC2(CC1)C(O)=C(c1c(Cl)ccc(C)c1F)C(=O)N2OC` [P2.48], for which the mortality at 400 ppm in test [1] and in test [2] was over 80% throughout.
Take `COCON1C(=O)C(c2ccc(C)cc2C)=C(O)C12CCN(OC)CC2` [P2.52]: the mortality at 400 ppm in test [1] and in test [3] was over 80% each time.
Turning to `CON1CCC2(CC1)C(O)=C(c1c(F)ccc(C)c1Cl)C(=O)N2OC` [P2.58], the mortality at 400 ppm in test [1] and in test [2] was over 80% each time.
`CCOCON1C(=O)C(c2ccc(C)cc2C)=C(O)C12CCN(OC)CC2` [P2.61]: the mortality at 400 ppm in test [1] and in test [3] was over 80% throughout.
`CON1CCC2(CC1)C(O)=C(c1c(C)cc(C)cc1C)C(=O)N2OC1COC1` [P2.66] returned a mortality at 200 ppm in test [4] of at least 80%. For the same compound, the mortality at 400 ppm in test [1] and in test [3] was over 80% throughout.
Compound `COCCON1C(=O)C(c2c(C)ccc(Cl)c2C)=C(O)C12CCN(OC)CC2` [P2.70] returned a mortality at 200 ppm in test [4] of at least 80%. In addition, the mortality at 400 ppm in test [1] and in test [3] was over 80% in each case.
As to `COCON1C(=O)C(c2c(C)ccc(Cl)c2C)=C(O)C12CCN(OC)CC2` [P2.71], the mortality at 200 ppm in test [4] was at least 80%. In test [1], the mortality at 400 ppm was over 80%.
In the case of `COCON1C(=O)C(c2c(C)cc(C)cc2Br)=C(O)C12CCN(OC)CC2` [P2.72], the mortality at 400 ppm in test [1] and in test [3] was over 80% in each case.
Consider `CON1CCC2(CC1)C(O)=C(c1cc(Br)c(C)cc1C)C(=O)N2OC1CCCO1` (centres unmarked) [P2.76], for which, in test [2], the mortality at 400 ppm is over 80%.
`CON1CCC2(CC1)C(O)=C(c1c(C)cccc1C)C(=O)N2OC` [P2.78] returned a mortality at 200 ppm in test [4] of at least 80%. Further, the mortality at 400 ppm in test [1] and in test [3] was over 80% each time.
As for `COCCON1C(=O)C(c2c(C)cc(Br)cc2C)=C(O)C12CCN(OC)CC2` [P2.80], the mortality at 400 ppm in test [1] and in test [3] was over 80% in each case.
For the compound `CON1CCC2(CC1)C(O)=C(c1c(C)cc(C)cc1C)C(=O)N2OCC1CCSCC1` [P2.82], the mortality at 200 ppm in test [4] is at least 80%.
Turning to `CON1CCC2(CC1)C(O)=C(c1c(F)ccc(C)c1Cl)C(=O)N2OC1CCCO1` (centres unmarked) [P2.92], the mortality at 400 ppm in test [1] and in test [3] was over 80% throughout.
Compound `CON1CCC(ON2C(=O)C(c3c(C)cc(C)cc3C)=C(O)C23CCN(OC)CC3)CC1` [P2.95] registered a mortality at 200 ppm in test [4] of at least 80%. Further, in test [1], the mortality at 400 ppm was over 80%.
With `CON1CCC2(CC1)C(O)=C(c1c(C)cc(C)cc1C)C(=O)N2OC1CCOC1` (centres unmarked) [P2.98], the mortality at 400 ppm in test [1] and in test [3] was over 80% each time.
On to `CON1CCC2(CC1)C(O)=C(c1c(C)cc(C)cc1C)C(=O)N2OCCSC` [P2.99], for which, in test [4], the mortality at 200 ppm was at least 80%. Besides, the mortality at 400 ppm in test [1] was over 80%.
`CON1CCC2(CC1)C(O)=C(c1c(C)cc(C)cc1C)C(=O)N2OCC1CCCOC1` (centres unmarked) [P2.100]: the mortality at 400 ppm in test [1], in test [3] and in test [2] was over 80% in each case.
